Reference: the OPERA property sets (Mansouri et al. 2018)

Conditions: not given
In the case of `CCCCCCCCCCS`, the boiling point is reported as 241 °C, the log10 vapour pressure (mmHg) is reported as -1.44 and the melting point is reported as -26 °C. `OC(CCN1CCCCC1)(c1ccccc1)c1ccccc1` gave a melting point of 120 °C. For `C/C=C(\C)C(=O)OC`, the boiling point was 139 °C. With `[N-]=[N+]=NCC(=O)N[C@H](CO)[C@H](O)c1ccc([N+](=O)[O-])cc1` the melting point was 107 °C. In the case of `NS(=O)(=O)c1ccc(SCCCCCO)cc1`, the melting point is reported as 103 °C. `O=c1occc2ccccc12` gave a boiling point of 286 °C and a melting point of 47 °C. With `Cc1nnc(N)s1` the melting point was 224 °C. In the case of `CC(=O)OCC(CO)OC(C)=O` (stereo not drawn), the boiling point is reported as 259 °C and the ready biodegradability is reported as “readily biodegradable”. In the case of `CC(=O)CC1CCCCN1` (stereo not drawn), the boiling point is reported as 195 °C. `CC(C)=CCC/C(C)=C/C=C/C(C)=C/C=C/C(C)=C/C=C/C=C(C)/C=C/C=C(C)/C=C/C1C(C)=CCCC1(C)C` (stereo not drawn) showed a melting point of 140 °C. For `Cc1cc(C(=O)NNCc2ccccc2)no1`, the melting point was 106 °C. `CC(C)NCC(O)c1ccc(O)c(O)c1` (stereo not drawn) showed a melting point of 170 °C. For `C=CC1(C(C)CCC)C(=O)NC(=O)NC1=O` (stereo not drawn), the melting point was 91 °C. For `COC(C)=O`, the boiling point was 56.8 °C, the log10 Henry constant (atm·m³/mol) was -3.94 and the log10 Koa was 2.31. For the same compound, the log10 vapour pressure (mmHg) was 2.33, the melting point was -98 °C and the ready biodegradability was “readily biodegradable”. In the case of `CCCCCCCCCCCCCCCCCC(CC)c1ccccc1` (stereo not drawn), the melting point is reported as 29.3 °C. In the case of `Nc1ccc(N)cc1`, the boiling point is reported as 267 °C, the melting point is reported as 146 °C and the ready biodegradability is reported as “not readily biodegradable”. With `Clc1ccc(C(c2ccc(Cl)cc2)C(Cl)(Cl)Cl)cc1` the log10 Henry constant (atm·m³/mol) was -5.08, the log10 Koa was 9.82 and the log10 Koc (L/kg) was 5.31. The log10 vapour pressure (mmHg) was -6.8, the melting point was 108 °C and the ready biodegradability was “not readily biodegradable”. With `O=C(O)CC(=O)O` the ready biodegradability was “readily biodegradable”. With `CCOC(=O)C(Br)C(C)C` (stereo not drawn) the boiling point was 186 °C. `CC(=O)OCC(=O)c1ccccc1` showed a boiling point of 270 °C and a melting point of 49 °C. `O=S1OC[C@@H]2[C@H](CO1)[C@]1(Cl)C(Cl)=C(Cl)[C@@]2(Cl)C1(Cl)Cl` (stereo partly drawn) showed a log10 Koa of 8.64. For `Clc1ccc(-c2nc3c4ccccc4ccn3n2)cc1`, the melting point was 239 °C. With `CCCCCBr` the boiling point was 130 °C, the log10 vapour pressure (mmHg) was 1.1 and the melting point was -95 °C. For the same compound, the ready biodegradability was “not readily biodegradable”. In the case of `Clc1cnc(Cl)c(Cl)c1`, the boiling point is reported as 219 °C, the melting point is reported as 49 °C and the ready biodegradability is reported as “not readily biodegradable”. Work on `CC(=O)CCC(=O)OCC(C)C` yielded a boiling point of 228 °C. In the case of `COc1c(C)cccc1C`, the boiling point is reported as 182 °C. With `O=C1c2ccccc2C(=O)N1SC(F)(Cl)Cl` the ready biodegradability was “not readily biodegradable”. `c1ccc(C(c2ccccc2)c2ccccc2)cc1` showed a boiling point of 359 °C, a log10 vapour pressure (mmHg) of -5.25 and a melting point of 94 °C. `OC(c1ccccc1)(c1ccccc1)C(O)(c1ccccc1)c1ccccc1` gave a melting point of 182 °C. In the case of `Clc1ccc2c(Cl)ccnc2c1`, the melting point is reported as 93 °C. `CCCC(=O)C(=O)OCC` showed a boiling point of 182 °C. `CCS(=O)(=O)C(C)(C)S(=O)(=O)CC` showed a boiling point of 300 °C and a melting point of 126 °C. `O=C(Cl)c1cccc(C(F)(F)F)c1` gave a boiling point of 187 °C. In the case of `CN1CCc2cc3c(cc2[C@H]1[C@@H]1OC(=O)c2c1ccc1c2OCO1)OCO3`, the melting point is reported as 194 °C. In the case of `Clc1cccc(-c2cccc(Cl)c2Cl)c1Cl`, the log10 Henry constant (atm·m³/mol) is reported as -4 and the log10 vapour pressure (mmHg) is reported as -4.13. Work on `CC(C)(Br)[N+](=O)[O-]` yielded a boiling point of 153 °C. For `c1ccc2sc(SSc3nc4ccccc4s3)nc2c1`, the melting point was 180 °C and the ready biodegradability was “not readily biodegradable”. In the case of `CCCCCCC(C)N` (stereo not drawn), the boiling point is reported as 165 °C. Work on `CCCCCC(=O)O` yielded a boiling point of 205 °C, a log10 Henry constant (atm·m³/mol) of -6.12 and a log10 Koc (L/kg) of 1.46. For the same compound, the log10 vapour pressure (mmHg) was -1.36, the melting point was -3 °C and the ready biodegradability was “readily biodegradable”. Compound `C#C[C@]1(O)CC[C@H]2[C@@H]3CCC4=CC(=O)CC[C@]4(C)[C@H]3CC[C@@]21C` has a melting point of 272 °C. Compound `O=CC(Cl)(Cl)Cl` has a boiling point of 97.8 °C, a log10 Henry constant (atm·m³/mol) of -8.54 and a log10 vapour pressure (mmHg) of 1.7. The melting point was -57.5 °C and the ready biodegradability was “not readily biodegradable”. Compound `CC(C)(C)ON=O` has a boiling point of 63 °C. With `FC(Cl)C(Cl)(Cl)Cl` (stereo not drawn) the boiling point was 116 °C and the melting point was -95.3 °C. For `CCOC(=O)c1ncn2c1CN(C)C(=O)c1cc(F)ccc1-2`, the melting point was 202 °C. Compound `Clc1ccc(Cl)cc1` has a boiling point of 174 °C, a log10 Henry constant (atm·m³/mol) of -2.62 and a log10 Koa of 4.46. The log10 Koc (L/kg) was 2.65, the log10 vapour pressure (mmHg) was 0.24 and the melting point was 52.1 °C. The ready biodegradability was “not readily biodegradable”. For `C=C(NC(C)=O)C(=O)CCC(N)=O`, the melting point was 130 °C. `CC/C=C\C(C)(C)C` gave a melting point of -137 °C. In the case of `O=[N+]([O-])c1cccc(O)c1`, the log10 Henry constant (atm·m³/mol) is reported as -8.7, the melting point is reported as 96.8 °C and the ready biodegradability is reported as “readily biodegradable”. For `CN(C)C(=S)SSC(=S)N(C)C`, the log10 Koc (L/kg) was 2.83, the log10 vapour pressure (mmHg) was -4.76 and the melting point was 156 °C. For the same compound, the ready biodegradability was “readily biodegradable”. Compound `CC(C)(C)OC(C)(C)C` has a boiling point of 107 °C and a log10 vapour pressure (mmHg) of 1.51.

Same assay, conditions: fish
In the case of `Clc1cc(-c2c(Cl)c(Cl)c(Cl)c(Cl)c2Cl)cc(Cl)c1Cl`, the log10 biotransformation half-life (days) is reported as 2.65. With `Clc1cc2oc3c(Cl)c(Cl)c(Cl)cc3c2cc1Cl` the log10 BCF was 4.13 and the log10 biotransformation half-life (days) was 1.36. Work on `Nc1cccc(O)c1` yielded a log10 BCF of 1.34. Compound `Cc1c(Br)c(Br)c(Br)c(Br)c1Br` has a log10 BCF of 2.43 and a log10 biotransformation half-life (days) of -0.13. For `Clc1cc(Cl)c(Oc2cc(Cl)c(Cl)cc2Cl)c(Cl)c1`, the log10 biotransformation half-life (days) was 2.01. `Clc1ccc(C(c2ccc(Cl)cc2)C(Cl)(Cl)Cl)cc1` showed a log10 BCF of 4.29 and a log10 biotransformation half-life (days) of 1.93. Work on `Clc1cccc(-c2cccc(Cl)c2Cl)c1Cl` yielded a log10 BCF of 4.23 and a log10 biotransformation half-life (days) of 2. Work on `c1ccc2sc(SSc3nc4ccccc4s3)nc2c1` yielded a log10 BCF of 1.42 and a log10 biotransformation half-life (days) of -0.91. For `Clc1ccc(Cl)cc1`, the log10 BCF was 2.62 and the log10 biotransformation half-life (days) was 1.1. `O=[N+]([O-])c1cccc(O)c1` showed a log10 BCF of 1.4 and a log10 biotransformation half-life (days) of -0.49. Work on `CN(C)C(=S)SSC(=S)N(C)C` yielded a log10 BCF of 0.53 and a log10 biotransformation half-life (days) of -1.18.
